From US9593305B2, “Differentiation of pluripotent stem cells” (Janssen Biotech, Inc., priority 2008, dated 2017)

Experiments:
H1 p49C3 cells = assay: Differentiation on microcarrier beads, cell number and CXCR4 by flow cytometry (Example 22); format: cell-based, human; details: three days
Protocol: H1 p49C3 cells were routinely grown on Cytodex3 beads (GE Healthcare Life Sciences, NJ) in a 125 ml spinner flask, according to the methods described in U.S. Patent Application No. 61/116,447. After seven days, cells and beads were transferred to a 6 well plate at a ratio of 30 cm^2 bead surface area per well, and the plate was placed on a rocking platform. Cells on beads in the positive control treatment well (designated AA/Wnt3a) were differentiated with addition of 100 ng/ml activin A (PeproTech; Cat #120-14) and 20 ng/ml Wnt3a (R&D Systems; Cat #1324-WN/CF) for two days followed by 100 ng/ml activin A and 8 ng/ml bFGF (PeproTech Inc.; Cat #: 100-18B) for one day in RPMI-1640 (Invitrogen; Cat #: 22400) with 2% Fatty Acid Free BSA (MP Biomedicals, Inc; Cat #152401) using volumes of 2 ml/well. Compound 34, at a final concentration of 2.5 nM was added to a negative control treatment well (designated CMP alone (JNJ alone)) in RPMI-1640 with 2% Fatty Acid Free BSA (2 ml/well) for three days in the absence of any other growth factor treatment. […]
At the conclusion of treatment and culture, cells were harvested from the beads, according to the methods described in U.S. Patent Application No. 61/116,447. The harvested cells were counted and analyzed by flow cytometry, according to the methods described above. […]

scid-beige mice = assay: Transplantation of differentiated cells under the kidney capsule, human C-peptide ELISA (Example 18); format: in vivo, mouse; details: 8-weeks post-transplant; cells treated in step 1 as named (compounds with GDF-8)
Protocol: Five to six-week-old male scid-beige mice (C.B-Igh-1 b1 GbmsTac-Prkdc^scid-Lyst^bgN7) were purchased from Taconic Farms. Mice were housed in microisolator cages with free access to sterilized food and water. In preparation for surgery, mice were identified by ear tagging, their body weight was measured, and their blood glucose was determined using a hand held glucometer (LifeScan; One Touch). On the day of surgery, mice were anesthetized with a mixture of isolflurane and oxygen, and the surgical site was shaved with small animal clippers. Mice were dosed with 0.1 mg·kg Buprenex subcutaneously pre-operatively. The surgical site was prepared with successive washes of 70% isopropyl alcohol, 10% povidone-iodide, and 70% isopropyl alcohol, and a left lateral incision was made through the skin and muscle layers. […]
Following transplantation, mice were weighed once per week and blood glucose was measured twice per week. […] Human C-peptide levels were determined using the Mercodia/ALPCO Diagnotics Ultrasensitive C-peptide ELISA according to the manufacturer's instructions.
ELISA results for human C-peptide are shown in FIG. 23 for mice transplanted with cells from each of the respective treatment groups. No circulating human C-peptide was detected at four weeks post-transplant for any mice receiving cells from any of the treatment groups.

In the case of `O=C1CCN2CCN(CC2)Cc2cc(Cl)cc(c2)Nc2ncnc(n2)-c2cncc(c2)CCCN1` [Compound 34, 5-Chloro-1,8,10,12,16,22,26,32-octaazapentacyclo[24.2.2.1˜3.7˜0.1˜9,13˜0.1˜14.18˜]tritriaconta-3(33), 4,6,9(32), 10,12,14(31), 15,17-nonaen-23-one], the “differentiation into CXCR4 positive cells” value (H1 p49C3 cells; Compound 34 alone, no growth factor, Cytodex3 beads) is reported as “did not differentiate into CXCR4 positive cells” and the “CXCR4 expression, % of the cells, on average” value (H1 p49C3 cells; Compound 34 with the various growth factor combinations including 50 ng/ml GDF-8, Cytodex3 beads) is reported as 50%.
In the case of `C=CCN1CC(=O)NCCCc2cncc(c2)-c2ncnc(n2)Nc2cccc(c2)C1` [Compound 40, 14-Prop-2-en-1-yl-3,5,7,14,17,23,27-heptaazatetracyclo[19.3.1.1˜2.6˜0.1˜8,12˜]heptacosa-1(25), 2(27), 3,5,8(26), 9,11,21,23-nonaen-16-one], the “mice with detectable C-peptide” value (scid-beige mice) is reported as “one of three mice”.
